According to US6214992A (Hoechst Aktiengesellschaft, priority 1996, dated 2001):
Where two headings read alike, the source gives them in different places.

Columns and labels:
[1] = test system: Mongolian gerbils; assay: transient global ischemia, CA1 hippocampus nerve cell damage; assay type: in vivo, Mongolian gerbil; settings: Meriones unguiculatus, ip, 168 h, histopathological score after 7 days versus untreated control, read-out: Inhibition of the neuronal CA1 hippocampus damage; for inhibition in vivo at 10 mg/kg: Dose 10 mg/kg intraperitoneally 30 minutes after 3-minute ischemia
Protocol: To carry out the experiment, which took place according to the guidelines of the German Animal Protection Act, 30 male Mongolian gerbils having a body weight of between 60 and 70 g were randomly divided into two groups each containing 15 animals. The respective test substance was administered to the animals of the first group 30 minutes after the ischemia period by intraperitoneal injection, while the animals of the second group, which served as an untreated control group, only received the same volume of the vehicle concerned. To produce the temporary forebrain ischemia, the animals were fixed in the supine position to a heated operated table, and both common carotid arteries were carefully exposed and closed for 3 minutes by means of microaneurysm clips. 7 days after the 3-minute ischemia period, the animals were decapitated under halothane anesthesia, the brains were rapidly and carefully removed, first fixed by immersion in Carnoy's solution (ethanol/chloroform/acetic acid=6/3/1) and then embedded in paraffin. Subsequently 4 to 6 μm thick coronal sections through the hippocampus were prepared approximately at the height of the bregma and these were stained with hematoxylin and eosin. After this, the extent of eosinophilic necrosis of the pyramidal cells in the CA1 region of the hippocampus was determined by light microscopy in the course of a blind experiment by means of a semiquantitative histopathological score (0=none; 1=slight; 2=medium severe; 3=severe and 4=complete necroses). The assessment variable used for the neuroprotective action was the percentage change in the mean histopathological score of the preparation group compared to that of the untreated control group.

[2] = test system: C57BL/6 mice; assay: endotoxin (LPS)-induced lethal shock, decrease in mortality; assay type: in vivo; settings: Mus musculus, ip, read-out: Inhibition of mortality
Protocol: For the testing of preparations for antishock action, various experimental animal models have been developed.
To carry out the experiments, a mixture of 10 ng of LPS from Salmonella abortus equi. and 7.5 mg of galactosamine in 0.2 ml of phosphate-buffered,physiological saline solution was administered to each animal by intravenous injection, which as a rule led to death within 6 to 9 hours. The test preparations were administered intraperitoneally one hour before LPS provocation at a dose of 100 mg/kg. The animals of the control group (n=10) instead of this received pure 0.9% saline solution as placebo. To assess the action of the preparation, the number of surviving animals was determined in the treated group (n=10) 48 hours after LPS administration and from this the percentage inhibition of mortality was determined with respect to the mortality in the control group.

[3] = test system: Mongolian gerbils; settings: gerbil, comparable experimental conditions; J. Cereb. Blood Flow Metab. 1987, 7/1: 74-81; cited from earlier work
[4] = test system: rat; settings: comparable experimental conditions, J. Cereb. Blood Flow Metab. 1994, 14/1: 166-173; cited from earlier work
[5] = 100 mg/kg intraperitoneally one hour before LPS/galactosamine, survivors 48 hours after LPS, versus placebo control

SMILES | inhibition in vivo at 10 mg/kg [1] [%] | inhibition in vivo at 100 mg/kg [2, 5] [%] | further results
COCCn1c(=O)c2[nH]cnc2n(C)c1=O [Compound 6] | 20 |  | 
CC(C)COCn1c(=O)c2[nH]cnc2n(C)c1=O [Compound 48, 1-Isobutoxymethyl-3-methylxanthine] |  | 40 | 
CCCOCCn1c(=O)c2[nH]cnc2n(C2CC2)c1=O [Compound 39] | 36 | 30 | 
CCOCCn1c(=O)c2[nH]cnc2n(C)c1=O [Compound 21] |  | 40 | 
CCCOCn1c(=O)c2[nH]cnc2n(C)c1=O [Compound 26] |  | 100 | 
CCCCOCn1c(=O)c2[nH]cnc2n(CC)c1=O [Compound 41] |  | 40 | 
CCCn1c(=O)n(CCOC)c(=O)c2[nH]cnc21 [Compound 8] |  |  | inhibition in vivo at 100 mg/kg ([2]; 48 h): 30%
CCCCn1c(=O)n(CCOc2ccccc2)c(=O)c2[nH]cnc21 [Compound 63] | 27 |  | 
CCn1c(=O)n(COC)c(=O)c2[nH]cnc21 [Compound 2] |  | 30 | 
COCn1c(=O)c2[nH]cnc2n(C2CC2)c1=O [Compound 5] | 20 |  | 
CCCOCn1c(=O)c2[nH]cnc2n(CC2CC2)c1=O [Compound 34, 3-Cyclopropylmethyl-1-propoxymethylxanthine] |  | 30 | 
CCCOCn1c(=O)c2[nH]cnc2n(-c2ccccc2)c1=O [Compound 32, 3-Phenyl-1-propoxymethylxanthine] |  | 90 | 
CCn1c(=O)n(CCOC)c(=O)c2c1ncn2Cc1ccccc1 [Compound 77] | 33 |  | 
CC(C)COCn1c(=O)c2[nH]cnc2n(C2CC2)c1=O [Compound 50] |  | 40 | 
CCn1c(=O)n(COc2ccc(Cl)cc2)c(=O)c2[nH]cnc21 [Compound 66] | 23 |  | 
CCCOCn1c(=O)c2[nH]cnc2n(CC)c1=O [Compound 27, 3-Ethyl-1-propoxymethylxanthine] | 67 | 100 | inhibition in vivo at 5 mg/kg ([1]; Dose 5 mg/kg intraperitoneally 30 minutes after 3-minute ischemia): 40%
CCn1c(=O)n(COCCOC)c(=O)c2[nH]cnc21 [Compound 54] | 36 | 30 | 
CCn1c(=O)n(COc2ccccc2)c(=O)c2[nH]cnc21 [Compound 58] | 20 |  | 
CCCCOCCn1c(=O)c2[nH]cnc2n(CC)c1=O [Compound 44] | 64 | 30 | 
COCn1c(=O)c2[nH]cnc2n(C)c1=O [Compound 1, 1-Methoxymethyl-3-methylxanthine] |  | 80 | 
CCC(C)OCn1c(=O)c2[nH]cnc2n(CC)c1=O (stereo not drawn) [Compound 52, 1-sec-Butoxymethyl-3-ethylxanthine] |  | 30 | 

SMILES | inhibition in vivo at 10 mg/kg [1] [%] | inhibition in vivo at 100 mg/kg [2, 5] [%] | further results
CCn1c(=O)n(CCCOC)c(=O)c2c1ncn2Cc1ccccc1 [Compound 82] | 30 |  | 
CCCCn1c(=O)n(COC)c(=O)c2[nH]cnc21 [Compound 4] |  | 30 | 
CCCn1c(=O)n(CCOCC)c(=O)c2[nH]cnc21 [Compound 23] |  |  | inhibition in vivo at 100 mg/kg ([2]; 48 h): 40%
CCCOCn1c(=O)c2[nH]cnc2n(CC(C)C)c1=O [Compound 31, 3-Isobutyl-1-propoxymethylxanthine] |  | 30 | 
CCCCn1c(=O)n(COCCC)c(=O)c2[nH]cnc21 [Compound 30] | 24 |  | 
CCCOCn1c(=O)c2c(ncn2Cc2ccccc2)n(C2CC2)c1=O [Compound 103] | 32 |  | 
CCCOCCn1c(=O)c2[nH]cnc2n(C)c1=O [Compound 35] |  | 30 | 
CCCOCn1c(=O)c2[nH]cnc2n(CCC)c1=O [Compound 28] | 30 |  | 
CCn1c(=O)n(CCOC)c(=O)c2[nH]cnc21 [Compound 7] | 33 |  | 
Cn1c(=O)c2[nH]cnc2n(C)c1=O [theophylline, 1,3-dimethylxanthine] |  |  | inhibition of ischemic nerve cell damage [3]: inhibits ischemic nerve cell damage neither; inhibition of ischemic nerve cell damage [4]: inhibits ischemic nerve cell damage neither
CCCCOCCn1c(=O)c2c(ncn2Cc2ccccc2)n(CC)c1=O [Compound 114] | 27 |  | 
CCOCn1c(=O)c2[nH]cnc2n(CC)c1=O [Compound 17] | 66 | 100 | 
CCOCn1c(=O)c2[nH]cnc2n(C)c1=O [Compound 16] |  | 100 | 
CCCCOCn1c(=O)c2[nH]cnc2n(C)c1=O [Compound 40] |  | 40 | 
CCn1c(=O)n(CCOc2ccccc2)c(=O)c2[nH]cnc21 [Compound 61] | 23 |  | 
CCCCn1c(=O)n(CCOCC)c(=O)c2[nH]cnc21 [Compound 24] | 30 |  | 
CCCOCn1c(=O)c2[nH]cnc2n(C(C)C)c1=O [Compound 29] |  | 50 | 
CCCOCCn1c(=O)c2[nH]cnc2n(CCC)c1=O [Compound 37, 1-(2-Propoxyethyl)-3-propylxanthine] |  | 80 | 
CCOCCn1c(=O)c2[nH]cnc2n(C2CC2)c1=O [Compound 25] | 24 |  | 
CCCOCCn1c(=O)c2[nH]cnc2n(CC)c1=O [Compound 36] | 23 |  | 
